The text below walks through data of article PMC9200067 (Clinical and Translational Science, 2022).

Holding throughout (assay): competitive radioligand binding, recombinant cells
What all share (format): cell-based

The target in one assay is 5-HT4 (Homo sapiens, UniProt Q13639).
For the next assay, the target named is σ1 (Homo sapiens, UniProt Q99720).
The next assay deals with T1, α1B (Homo sapiens, UniProt P35368).
T1 sequence (P35368 1-520): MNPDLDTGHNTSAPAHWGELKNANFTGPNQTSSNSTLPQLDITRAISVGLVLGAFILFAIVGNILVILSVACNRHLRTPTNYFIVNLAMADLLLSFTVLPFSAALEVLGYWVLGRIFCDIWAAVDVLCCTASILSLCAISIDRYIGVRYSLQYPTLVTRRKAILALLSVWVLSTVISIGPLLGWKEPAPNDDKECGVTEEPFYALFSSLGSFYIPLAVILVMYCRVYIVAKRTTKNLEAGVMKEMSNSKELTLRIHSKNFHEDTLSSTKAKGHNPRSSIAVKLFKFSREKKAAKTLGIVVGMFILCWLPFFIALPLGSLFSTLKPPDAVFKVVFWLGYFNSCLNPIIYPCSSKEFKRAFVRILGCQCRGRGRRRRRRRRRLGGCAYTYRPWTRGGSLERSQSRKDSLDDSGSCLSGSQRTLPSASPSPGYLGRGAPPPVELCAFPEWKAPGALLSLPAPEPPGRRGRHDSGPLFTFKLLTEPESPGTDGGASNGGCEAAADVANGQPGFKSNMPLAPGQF

The target in a further assay is T2, α1D (Homo sapiens, UniProt P25100).
T2 sequence (P25100 1-572): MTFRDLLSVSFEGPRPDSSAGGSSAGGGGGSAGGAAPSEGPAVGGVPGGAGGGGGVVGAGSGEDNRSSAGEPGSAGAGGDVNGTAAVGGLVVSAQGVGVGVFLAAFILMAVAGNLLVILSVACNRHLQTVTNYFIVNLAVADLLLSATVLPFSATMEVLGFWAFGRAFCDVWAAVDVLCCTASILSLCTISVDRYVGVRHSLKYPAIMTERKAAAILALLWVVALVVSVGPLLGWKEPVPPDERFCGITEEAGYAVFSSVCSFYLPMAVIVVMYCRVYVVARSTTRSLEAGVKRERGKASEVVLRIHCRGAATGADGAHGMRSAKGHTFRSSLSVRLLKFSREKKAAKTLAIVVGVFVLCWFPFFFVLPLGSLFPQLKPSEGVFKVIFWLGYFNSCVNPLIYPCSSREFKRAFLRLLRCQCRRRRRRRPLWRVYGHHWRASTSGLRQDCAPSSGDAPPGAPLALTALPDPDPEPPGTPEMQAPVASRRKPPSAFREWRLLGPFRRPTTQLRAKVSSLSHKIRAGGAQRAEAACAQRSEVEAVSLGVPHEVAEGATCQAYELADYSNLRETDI

Chain of σ1 (Q99720 whole entry): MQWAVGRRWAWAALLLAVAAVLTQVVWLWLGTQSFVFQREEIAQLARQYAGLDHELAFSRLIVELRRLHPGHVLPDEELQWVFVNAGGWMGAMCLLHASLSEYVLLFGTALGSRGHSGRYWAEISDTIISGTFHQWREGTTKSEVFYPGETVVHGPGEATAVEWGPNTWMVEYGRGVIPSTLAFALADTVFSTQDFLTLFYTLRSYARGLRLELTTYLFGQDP
Chain of 5-HT4 (Q13639 whole entry): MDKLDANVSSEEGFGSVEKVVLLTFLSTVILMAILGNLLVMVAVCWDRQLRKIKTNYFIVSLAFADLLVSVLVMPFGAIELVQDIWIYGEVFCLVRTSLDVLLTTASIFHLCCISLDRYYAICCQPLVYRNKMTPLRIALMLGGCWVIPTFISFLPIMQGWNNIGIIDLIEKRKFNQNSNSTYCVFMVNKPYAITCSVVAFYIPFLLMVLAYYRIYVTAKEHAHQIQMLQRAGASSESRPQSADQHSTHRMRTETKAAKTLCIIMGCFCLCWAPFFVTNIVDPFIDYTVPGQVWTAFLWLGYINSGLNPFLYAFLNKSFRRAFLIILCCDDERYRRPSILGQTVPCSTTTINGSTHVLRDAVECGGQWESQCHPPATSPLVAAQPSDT

For the compound `O=c1n(CCCN2CCN(c3cccc(Cl)c3)CC2)nc2ccccn12` [trazodone], the Ki on 5-HT4 came out at 10 µM; at σ1, 3.98 µM; at α1B, 0.015 µM; at α1D, 0.027 µM.

A word on the Ki: it is a measure of affinity in units of concentration, obtained from inhibition or displacement.
